# Measured values taken from patent US7615542B2, “Dioxolane thymine and combinations for use against 3TC/AZT resistant strains of HIV” (priority 2002, dated 2009).
# Assays:
# [1] = test system: HIV-1 isolate 488-0; experiment: Anti-HIV efficacy in PBMC, isolate 488-0; format: cell-based; conditions: for IC50: Human immunodeficiency virus 1, PBMC, isolate 488-0 (pre-treatment), read-out: Drug (IC50)
# Procedure: (§1) The following Tables 2 and 3, set forth below, describe the HIV resistant strains genotypically (Table 2) and phenotypically (Table 3) which were used in the experiments to test activity.
# (§2) Each of the three test compounds were tested for efficacy against the various strains of HIV-1. Anti-HIV efficacy was evaluated in PBMC, reverse transcriptase activity was tested in a microtiter plate-based reverse transciptase assay (Buckeit, et al., AIDS Research and Human Retroviruses, 7:295-302, 1991), MTS staining was used for determining cell viability. […] Table 5 presents a resistance phenotype comparison for compounds of the present invention versus the compounds 3TC and AZT.
# (§3) The compounds were also evaluated in a parallel assay for cytotoxicity in uninfected PBM cells.
# [2] = test system: HIV-1 isolate 488-101; experiment: microbe, parasite or virus in culture; format: cell-based; conditions: for IC50: Human immunodeficiency virus 1, PBMC, isolate 488-101 (post-treatment), read-out: Drug (IC50); for Phenotype for 488-101: resistance phenotype comparison, Table 5
# Procedure: as §1
# (§4) Each of the three test compounds were tested for efficacy against the various strains of HIV-1. Anti-HIV efficacy was evaluated in PBMC, reverse transcriptase activity was tested in a microtiter plate-based reverse transciptase assay (Buckeit, et al., AIDS Research and Human Retroviruses, 7:295-302, 1991), MTS staining was used for determining cell viability.
# as §3
# [3] = test system: HIV-1 isolate H112-2; experiment: Anti-HIV efficacy in PBMC, isolate H112-2; format: cell-based; conditions: for IC50: Human immunodeficiency virus 1, PBMC, isolate H112-2 (pre-treatment), read-out: Drug (IC50)
# Procedure: as §1, §2, §3
# [4] = test system: HIV-1 isolate LAI M184V; experiment: Anti-HIV efficacy in PBMC, isolate LAI M184V; format: cell-based; conditions: for Phenotype for LAI M184V: resistance phenotype comparison, Table 5
# Procedure: as §1, §4, §3
# [5] = test system: HIV-1 isolate 5705-72; experiment: Anti-HIV efficacy in PBMC, isolate 5705-72; format: cell-based; conditions: for IC50: Human immunodeficiency virus 1, PBMC, isolate 5705-72 (post-treatment), read-out: Drug (IC50)
# Procedure: as §1, §4, §3
# [6] = test system: HIV-1 isolate 5705-0; experiment: Anti-HIV efficacy in PBMC, isolate 5705-0; format: cell-based; conditions: for IC50: Human immunodeficiency virus 1, PBMC, isolate 5705-0 (pre-treatment), read-out: Drug (IC50)
# Procedure: as §1, §2, §3
# [7] = test system: HIV-1 isolate G910-6; experiment: Anti-HIV efficacy in PBMC, isolate G910-6; format: cell-based; conditions: for IC50: Human immunodeficiency virus 1, PBMC, isolate G910-6 (post-treatment), read-out: Drug (IC50); for Phenotype for G910-6: resistance phenotype comparison, Table 5
# Procedure: as §1, §4, §3
# [8] = test system: HIV-1 isolate LAI; experiment: Anti-HIV efficacy in PBMC, isolate LAI; format: cell-based; conditions: for IC50: Human immunodeficiency virus 1, PBMC, read-out: Drug (IC50)
# Procedure: as §1, §2, §3
# [9] = test system: panel of HIV-1 3TC/AZT drug sensitive/resistant matched pair virus isolates; experiment: Standardized PBMC cell-based anti-HIV assay, matched pair panel; conditions: AZT and/or 3TC resistant isolates
# Procedure: as §4, §3
# [10] = test system: mutations 65R, 74V, 184V, and 115F in the RT gene; conditions: mutants harboring 2 or 3 of these mutations; cited from earlier work
Compound,IC50 [1],IC50 [2],Phenotype for 488-101 [2],IC50 [3],IC50 [5],IC50 [6],IC50 [7],Phenotype for G910-6 [7],IC50 [8],Phenotype for LAI M184V [4],Cross-resistance / resistance profile [9],also measured
"Nc1ccn([C@@H]2CS[C@H](CO)O2)c(=O)n1 [3TC, Lamivudine]",30 to 47 nM,40600 nM,"Resistant (>5 fold resistance, Resistant)",170 nM,> 50000 nM,4 to 9 nM,320 nM,"Sensitive (<5 fold resistance, Sensitive)",10 nM,–,–,"IC50 ([4]; Human immunodeficiency virus 1, PBMC, isolate LAI-M184V, read-out: Drug (IC50)): > 50000 nM"
"Cc1cn([C@H]2C[C@H](N=[N+]=[N-])[C@@H](CO)O2)c(=O)[nH]c1=O [AZT, 3′-Azido-3′-deoxythymidine]",0.3 to 0.6 nM,80 nM,–,10 nM,30 nM,3 to 8 nM,620 nM,"Resistant (>5 fold resistance, Resistant)",20 nM,"Sensitive (<5 fold resistance, Sensitive)",–,"Phenotype ([1]; isolate 488-0, Table 3): Sensitive; Phenotype ([2]; isolate 488-101, Table 3): Resistant; Phenotype ([3]; isolate H112-2, Table 3): Sensitive; Phenotype ([4]; isolate LAI-M184V, Table 3): Sensitive; Phenotype ([6]; isolate 5705-0, Table 3): Sensitive; Phenotype ([7]; isolate G910-6, Table 3): Resistant; Phenotype ([8]; Table 3): Sensitive"
"Nc1nc(N)c2ncn(C3COC(CO)O3)c2n1 [DAPD, beta-D-9-(5-hydroxymethyl-dioxolanyl-2-yl)-2,4-diamino-purine]",–,–,"Sensitive (<5 fold resistance, Sensitive)",–,–,–,–,"Sensitive (<5 fold resistance, Sensitive)",–,"Sensitive (<5 fold resistance, Sensitive)",resistance profile similar to AZT,"Resistance phenotype ([5]; resistance phenotype comparison, Table 5): Resistant (>5 fold resistance, Resistant)"
"Nc1nc2c(ncn2[C@H]2CO[C@@H](CO)O2)c(=O)[nH]1 [DXG, beta-D-9-(5-hydroxymethyl-dioxolanyl-2-yl)guanine]",–,–,"Sensitive (<5 fold resistance, Sensitive)",–,–,–,–,"Sensitive (<5 fold resistance, Sensitive)",–,"Resistant (>5 fold resistance, Resistant)",resistance profile similar to that of 3TC,–
"Nc1nc(NC2CC2)c2ncn([C@H]3C=C[C@@H](CO)C3)c2n1 [abacavir, Abacavir]",–,–,–,–,–,–,–,–,–,–,–,resistance to the drug [10]: approximately 10 fold
